Each compound was assayed against T1, Rhesus PDE2A3 (Macaca mulatta, UniProt B3VTJ2) (assay: PDE2 fluorescence polarization (IMAP FP) inhibition assay, rhesus PDE2A3). Conditions: Lab B; read-out: Rhesus PDE2 Ki (nM) Lab B.
T1 construct: made in house; host or cells: AD293 cells, transient transfection; supernatant of sonicated lysate
T1 sequence (B3VTJ2 1-941): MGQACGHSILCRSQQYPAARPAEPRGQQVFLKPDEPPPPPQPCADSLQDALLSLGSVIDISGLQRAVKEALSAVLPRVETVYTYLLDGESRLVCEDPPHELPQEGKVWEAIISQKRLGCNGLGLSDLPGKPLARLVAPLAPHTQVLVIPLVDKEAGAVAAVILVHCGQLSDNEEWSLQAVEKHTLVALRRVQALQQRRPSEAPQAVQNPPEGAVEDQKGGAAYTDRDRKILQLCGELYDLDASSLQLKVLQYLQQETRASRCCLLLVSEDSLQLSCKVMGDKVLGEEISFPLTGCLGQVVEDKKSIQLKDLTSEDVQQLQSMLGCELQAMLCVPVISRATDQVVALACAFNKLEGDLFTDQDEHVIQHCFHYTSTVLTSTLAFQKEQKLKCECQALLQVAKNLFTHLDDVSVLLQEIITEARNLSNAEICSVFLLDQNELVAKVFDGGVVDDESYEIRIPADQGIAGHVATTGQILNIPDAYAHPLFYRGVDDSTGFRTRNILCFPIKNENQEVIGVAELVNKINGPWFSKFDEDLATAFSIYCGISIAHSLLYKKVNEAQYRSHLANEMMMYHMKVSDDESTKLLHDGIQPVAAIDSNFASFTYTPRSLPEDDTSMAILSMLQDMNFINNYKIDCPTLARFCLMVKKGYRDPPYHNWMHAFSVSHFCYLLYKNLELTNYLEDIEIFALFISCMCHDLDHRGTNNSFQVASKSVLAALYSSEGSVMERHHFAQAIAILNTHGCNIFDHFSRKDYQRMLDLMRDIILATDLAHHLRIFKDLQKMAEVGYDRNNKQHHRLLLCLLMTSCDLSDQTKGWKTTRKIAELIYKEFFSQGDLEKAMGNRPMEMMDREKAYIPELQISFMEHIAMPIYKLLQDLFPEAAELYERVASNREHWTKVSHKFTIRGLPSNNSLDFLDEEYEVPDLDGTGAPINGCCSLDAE
Type: biochemical, rhesus macaque
How it was run: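 Enzyme source was the lysate supernatant of AD293 cells transiently expressing rhesus PDE2A3, diluted to give 20% conversion of 50 nM FAM-cAMP, with 1 µM cGMP as activator. Buffer was 10 mM Tris pH 7.2, 10 mM MgCl2, 1 mM DTT.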

Ki [nM]	Compound
15	Cc1nc2c(c(CF)nn2C(c2ccc(C(F)(F)F)cc2)C(C)(C)C)c(=O)[nH]1 (single isomer, unassigned) [Example 234, (S)- or (R)-1-(2,2-Dimethyl-1-(4-(trifluoromethyl)phenyl)propyl)-3-(fluoromethyl)-6-methyl-1H-pyrazolo[3,4-d]pyrimidin-4(5H)-one]
2	Cc1nc2c(c(CCO)nn2C(C)c2ccc(C(F)(F)F)cc2)c(=O)[nH]1 (single isomer, unassigned) [Example 250]
20	Cc1nc2c(c(C#N)nn2C(C)c2ccc(C(F)(F)F)cc2)c(=O)[nH]1 (single isomer, unassigned) [Example 252]
1.5	Cc1nc2c(c(C(F)(F)CO)nn2C(C)c2ccc(C(F)(F)F)cc2)c(=O)[nH]1 (single isomer, unassigned) [Example 255]
24	COCc1nn(C(C)c2ccc(C(F)(F)F)cc2)c2nc(C)[nH]c(=O)c12 (single isomer, unassigned) [Example 279]
71	Cc1nc2c(c(CC#N)nn2C(C)c2ccc(C(F)(F)F)cc2)c(=O)[nH]1 (single isomer, unassigned) [Example 280]
1.9	Cc1nc2c(c(CC#N)nn2C(C)c2ccc(C(F)(F)F)cc2)c(=O)[nH]1 (single isomer, unassigned) [Example 281]
179	Cc1nc2c(c(CC(F)F)nn2C(C)c2ccc(C(F)(F)F)cc2)c(=O)[nH]1 (single isomer, unassigned) [Example 285]
3.7	Cc1nc2c(c(CC(F)F)nn2C(C)c2ccc(C(F)(F)F)cc2)c(=O)[nH]1 (single isomer, unassigned) [Example 286]
3.6	COCc1nc2c(c(CO)nn2C(C)c2ccc(C(F)(F)F)cc2)c(=O)[nH]1 (single isomer, unassigned) [Example 293]
6.7	Cc1nc2c(c(CO)nn2C2(c3ccc(C(F)(F)F)cc3)CCC2)c(=O)[nH]1 [Example 78, 3-(Hydroxymethyl)-6-methyl-1-(1-(4-(trifluoromethyl)phenyl)cyclobutyl)-1H-pyrazolo[3,4-d]pyrimidin-4(5H)-one]
8.9	Cc1nc2c(c(/C=N\O)nn2C(C)c2ccc(C(F)(F)F)cc2)c(=O)[nH]1 (centres unmarked) [Example 251, (Z)-6-Methyl-4-oxo-1-(1-(4-(trifluoromethyl)phenyl)ethyl)-4,5-dihydro-1H-pyrazolo[3,4-d]pyrimidine-3-carbaldehyde oxime]
69	CC(c1ccc(C(F)(F)F)cc1)n1nc(CO)c2c(=O)[nH]c(C(F)F)nc21 (centres unmarked) [Example 284, 6-(Difluoromethyl)-3-(hydroxymethyl)-1-(1-(4-(trifluoromethyl)phenyl)ethyl)-1H-pyrazolo[3,4-d]pyrimidin-4(5H)-one]

Compound	Ki [nM]
Cc1nc2c(c(C=O)nn2C(C)c2ccc(C(F)(F)F)cc2)c(=O)[nH]1 (centres unmarked) [Example 248, 6-Methyl-4-oxo-1-(1-(4-(trifluoromethyl)phenyl)ethyl)-4,5-dihydro-1H-pyrazolo[3,4-d]pyrimidine-3-carbaldehyde]	53

Source: patent US10160762B2, “6-alkyl dihydropyrazolopyrimidinone compounds as PDE2 inhibitors” (Merck Sharp & Dohme Corp., priority 2015, dated 2018)
